Legend:
ICAM-1/CD54 = ICAM-1/CD54 (Homo sapiens, UniProt P05362); assay: ELISA-type plate binding assay, ICAM-1
Method: (§1) To address this hypothesis, an ELISA-type binding assay was developed in which neutrophil ligands (LFA-1 and MAC-1/CR3) and […] cell ligands (ICAM-1/CD54 and ICAM-2/CD102) were bound to microtiter plates. Plates were then incubated with increasing amounts of PA-dPEG24 in 1% gelatin/PBS buffer probed with antibody to the peptide and developed.
To ascertain if PA-dPEG24 could bind ICAM-1 and LFA-1 in plasma, these receptors were coated onto microtiter plates and then incubated with human plasma containing increasing amounts of PA-dPEG24, probed with antibody to the peptide and then developed.

ICAM-2/CD102 = ICAM-2/CD102 (Homo sapiens, UniProt P13598); assay: ELISA-type plate binding assay, ICAM-2; settings: 1% gelatin/PBS buffer
Sequence of ICAM-2/CD102 (P13598 25-275): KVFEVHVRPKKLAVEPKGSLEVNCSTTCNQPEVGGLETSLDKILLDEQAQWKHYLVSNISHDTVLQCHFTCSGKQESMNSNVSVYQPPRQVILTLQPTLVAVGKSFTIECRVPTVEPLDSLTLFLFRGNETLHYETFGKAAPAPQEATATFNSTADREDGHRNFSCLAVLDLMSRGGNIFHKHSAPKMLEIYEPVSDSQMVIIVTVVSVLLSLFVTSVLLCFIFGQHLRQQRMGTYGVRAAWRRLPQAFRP
Method: as §1

ICAM-5 = ICAM-5 (Homo sapiens, UniProt Q9UMF0); assay: ELISA-type plate binding assay, ICAM-5; settings: buffer
Sequence of ICAM-5 (Q9UMF0 32-924): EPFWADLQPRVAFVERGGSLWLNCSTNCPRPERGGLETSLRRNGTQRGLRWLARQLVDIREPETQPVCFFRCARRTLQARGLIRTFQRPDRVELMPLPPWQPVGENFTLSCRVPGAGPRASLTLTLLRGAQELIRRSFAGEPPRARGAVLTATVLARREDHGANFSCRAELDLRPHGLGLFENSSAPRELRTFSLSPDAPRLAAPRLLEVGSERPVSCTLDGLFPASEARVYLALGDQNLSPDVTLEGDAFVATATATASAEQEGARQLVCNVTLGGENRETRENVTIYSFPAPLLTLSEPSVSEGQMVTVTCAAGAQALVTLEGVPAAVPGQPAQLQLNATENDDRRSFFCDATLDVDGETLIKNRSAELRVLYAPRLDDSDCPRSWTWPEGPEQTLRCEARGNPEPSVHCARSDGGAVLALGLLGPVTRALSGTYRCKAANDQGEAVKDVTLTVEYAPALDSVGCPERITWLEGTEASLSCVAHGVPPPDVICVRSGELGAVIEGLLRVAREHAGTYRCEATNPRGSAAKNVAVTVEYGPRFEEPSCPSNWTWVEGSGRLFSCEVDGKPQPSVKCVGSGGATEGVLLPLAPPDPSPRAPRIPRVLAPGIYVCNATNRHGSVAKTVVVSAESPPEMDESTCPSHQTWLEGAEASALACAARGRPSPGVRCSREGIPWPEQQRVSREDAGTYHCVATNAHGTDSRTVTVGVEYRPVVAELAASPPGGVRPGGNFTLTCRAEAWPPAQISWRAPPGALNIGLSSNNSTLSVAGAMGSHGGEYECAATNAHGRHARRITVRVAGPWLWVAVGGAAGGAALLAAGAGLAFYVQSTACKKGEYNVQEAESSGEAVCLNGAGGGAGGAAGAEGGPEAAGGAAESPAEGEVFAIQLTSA

[1] = Pharmacokinetics, metabolite profiles and excretion of [14C]-PIC1-dPEG24 after single IV dose; type: in vivo, rat; settings: for Adjusted Peak Distribution (ROI %) in Rat Plasma: AUC0-24 hr pooled plasma, integrated together: M89/M160, M1444/M1701/M1573, M1288/M1217, M2244/M2357/M2470, M2768/PIC1-dPEG24; for estimated mean concentration within 0-24 hr in AUC0-24 hr pooled plasma: parent value = PIC1-dPEG24 and M2768 together
Method: […]. The six rats in Group 3 and Group 4 were further divided into two subgroups for serial blood collections at 10, 30 min and 1, 2, 3, 4, 6, 8, 24, and 48 hr. Blood was pooled by equal volume across animals at each time point, and aliquots (˜200 μL) of pooled blood were removed at each time point for total radioactivity, and the rest of blood samples were centrifuged to obtain plasma. Bile, urine, feces, and cage wash samples were collected up to 72 hr in bile duct cannulated (BDC) rats, and up to 168 hr in intact rats, and terminal blood samples were collected at the end of study (72 hr or 168 hr post-doses). The total radioactivity concentrations in the excreta, blood and plasma were determined by homogenization, combustion and/or liquid scintillation counting (LSC). The metabolite profiles and structure characterization were conducted in pooled plasma, urine, and bile samples using LC-UV/MS as well as radioactive detection. […].
The radioactive profiles of rat plasma samples for the low dose group and the high dose group were qualitatively similar.

free DNA = assay: OVA/LPS rat asthma model, free DNA in BALF (PicoGreen); settings: prophylactic or rescue 160 mg/kg IV; vs asthma rats Days 22-24; not back to baseline
[2] = test system: OVA/LPS rat model of neutrophilic asthma; assay: OVA/LPS rat model of neutrophilic asthma, leucocyte quantification in BALF; settings: Day 24
[3] = test system: human umbilical vascular endothelial cell (HUVEC); assay: HUVEC 3-dimensional culture, LPS-stimulated non-VEGF mediated angiogenesis; settings: increasing amounts of peptide; 10 ug/ml LPS; 18 hours

Sequence of ICAM-1/CD54 (P05362 28-532): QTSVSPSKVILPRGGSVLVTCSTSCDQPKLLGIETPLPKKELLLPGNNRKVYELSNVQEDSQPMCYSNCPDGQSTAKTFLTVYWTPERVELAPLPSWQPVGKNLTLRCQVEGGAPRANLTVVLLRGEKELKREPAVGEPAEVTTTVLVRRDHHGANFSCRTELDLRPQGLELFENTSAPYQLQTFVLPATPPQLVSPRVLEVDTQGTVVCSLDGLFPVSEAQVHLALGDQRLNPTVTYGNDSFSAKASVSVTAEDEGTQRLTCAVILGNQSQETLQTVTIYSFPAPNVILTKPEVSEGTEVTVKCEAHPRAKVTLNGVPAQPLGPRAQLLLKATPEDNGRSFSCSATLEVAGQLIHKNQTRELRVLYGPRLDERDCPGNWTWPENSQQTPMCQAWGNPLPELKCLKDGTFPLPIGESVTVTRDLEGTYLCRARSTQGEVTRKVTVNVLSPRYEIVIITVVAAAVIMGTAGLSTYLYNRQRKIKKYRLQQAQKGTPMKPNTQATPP

CC[C@H](C)[C@H](N)C(=O)N[C@@H](C)C(=O)N[C@@H](CC(C)C)C(=O)N[C@H](C(=O)N[C@@H](CC(C)C)C(=O)N[C@@H](CCC(=O)O)C(=O)N1CCC[C@H]1C(=O)N[C@H](C(=O)N[C@@H](CS)C(=O)N[C@@H](CS)C(=O)N[C@@H](CCC(N)=O)C(=O)N[C@@H](CCC(=O)O)C(=O)N[C@@H](CCCNC(=N)N)C(=O)N[C@@H](C)C(=O)N[C@@H](C)C(=O)NCCOCCOCCOCCOCCOCCOCCOCCOCCOCCOCCOCCOCCOCCOCCOCCOCCOCCOCCOCCOCCOCCOCCOCCOCCC(=O)O)[C@@H](C)CC)[C@@H](C)CC [RLS-0071]
binding to ICAM-1 (ICAM-1/CD54; 1% gelatin/PBS buffer): bound endothelial receptor ICAM-1 | binding to ICAM-1 (ICAM-1/CD54; in human plasma): bound dose-dependently | binding to ICAM-2 (ICAM-2/CD102): but not ICAM-2 | binding to ICAM-5 (ICAM-5): superior binding to ICAM-5 | Adjusted Peak Distribution (ROI %) in Rat Plasma ([1]; Group 3 (20 mg/kg IV)): about 12% | Adjusted Peak Distribution (ROI %) in Rat Plasma ([1]; Group 4 (200 mg/kg IV)): ~16% | estimated mean concentration within 0-24 hr in AUC0-24 hr pooled plasma ([1]; high dose group (200 mg/kg IV)): 2225 ng Eq/g | estimated mean concentration within 0-24 hr in AUC0-24 hr pooled plasma ([1]; low dose group (20 mg/kg IV)): 187 ng Eq/g | time RLS-0071 could be detected in vitreous post-IVT injection (IVT 160 mg/ml in 5 microliters): up to 10 days | half-life, IVT versus IV (IVT 160 mg/ml vs IV 200 mg/ml): much longer half-life in the eye than peptide delivered intravenously | free DNA in the BALF (free DNA): a decrease in free DNA was observed | neutrophil accumulation in the BALF ([2]; prophylactic 160 mg/kg IV Days 21, 22, 23, P<0.03): significant reduction in neutrophil accumulation | neutrophils in the BALF ([2]; rescue 160 mg/kg IV Days 22 and 23, P<0.1844): reduction in neutrophils but did not reach statistical significance | angiogenesis (sprouting and tube formation) [3]: dose-dependent reduction in angiogenesis
